The values that follow come from patent US9321764B2, “Dihydro-pyrrolopyridinone inhibitors” (AbbVie Inc., priority 2013, dated 2016).

As usually defined, the Ki is the equilibrium dissociation constant of an inhibitor or competing ligand from its target. Higher therefore signals a looser hold on the target.

In experiment [1] the target is T1, BRD4 (BDI_K57-E168) (Homo sapiens, UniProt O60885).
T1 construct: BD1: amino acids K57-E168; made in house
The experiment is described as follows: TR-FRET bromodomain binding assay, first bromodomain of BRD4. Particulars: His-tagged BD1, 100 nM Alexa647 probe; TR-FRET protocol A-E given per row. In a few lines: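 Ki values come from IC50s (4-parameter logistic) corrected for probe Kd and concentration, normalised to no-compound and 1 μM unlabelled probe controls. Probe displacement by TR-FRET used 8 nM BD1 (K57-E168), 100 nM Alexa647 probe, 1 nM Eu-anti-His, 20 mM phosphate pH 6.0, 2% DMSO, 1 h, room temperature.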

Experiment [2] relates to breast cancer cell line MX-1. As to the kind of experiment: MX-1 cell line proliferation assay. The format is cell-based. Particulars: Homo sapiens, MX1, 72 h, MX-1 cells, 3-day proliferation assay, Cell Titer Glo; read-out: Cellular proliferation EC50. In short, it runs like this: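 Final compound concentrations spanned 0.0001 to 3 μM, added to 5000 cells/well plated the previous night in RPMI 1640 plus 10% FBS at 37 °C.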
(Cellular ATP, detected with luciferase, serves as a proxy for viable cell number.)

The target of experiment [3] is T2, BRD4 (BDII_E352-M457) (Homo sapiens, UniProt O60885).
T2 construct: proliferation; Protocol; made in house
The experiment is described as follows: TR-FRET bromodomain binding assay, second bromodomain of BRD4. Particulars: His-tagged BD2, 30 nM Alexa647 probe; TR-FRET protocol A-E given per row. In a few lines: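 His-tagged BRD4 BD2 ([…]) competed against an Alexa647-labelled BET-inhibitor probe in TR-FRET. Buffer was 20 mM sodium phosphate pH 6.0, 50 mM NaCl, 1 mM EDTA, 0.01% Triton X-100, 1 mM DTT, with method D DMSO series of 2.5 mM–800 nM (stock range). IC50 from 4-parameter fit, Ki from probe Kd and concentration.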

On to `CN1CCN(Cc2ccc(Oc3ccc(F)cc3F)c(-c3cn(C)c4c(=O)[nH]ccc34)c2)CC1` [Example 116, 3-{2-(2,4-difluorophenoxy)-5-[(4-methylpiperazin-1-yl)methyl]phenyl}-1-methyl-1,6-dihydro-7H-pyrrolo[2,3-c]pyridin-7-one], for which the inhibition constant (Ki) was 93 nM in experiment [1] and 145 nM in experiment [3]. The EC50 in experiment [2] came out at 578 nM.
The like results for `Cn1cc(-c2cc(CNCC3CC3)ccc2Oc2ccc(F)cc2F)c2cc[nH]c(=O)c21` [Example 118, 3-[5-{[(cyclopropylmethyl)amino]methyl}-2-(2,4-difluorophenoxy)phenyl]-1-methyl-1,6-dihydro-7H-pyrrolo[2,3-c]pyridin-7-one] were, in that order, 776 nM, 382 nM and 1510 nM.
Take `Cn1cc(-c2cc(CNCc3c[nH]cn3)ccc2Oc2ccc(F)cc2F)c2cc[nH]c(=O)c21` [Example 119, 3-[2-(2,4-difluorophenoxy)-5-{[(1H-imidazol-4-ylmethyl)amino]methyl}phenyl]-1-methyl-1,6-dihydro-7H-pyrrolo[2,3-c]pyridin-7-one]: the results for the Ki in experiment [1] and in experiment [3] were 599 nM and 478 nM, respectively. The EC50 in experiment [2] was over 3000 nM.
For `Cn1cc(-c2cc(CCl)ccc2Oc2ccc(F)cc2F)c2cc[nH]c(=O)c21` [Example 120, 3-[5-(chloromethyl)-2-(2,4-difluorophenoxy)phenyl]-1-methyl-1,6-dihydro-7H-pyrrolo[2,3-c]pyridin-7-one], the Ki came out at 77 nM in experiment [1] and 208 nM in experiment [3]. Besides, in experiment [2], the EC50 came to 306 nM.
The like results for `Cn1cc(-c2cc(CS(C)(=O)=O)ccc2Nc2ccc(F)cc2)c2cc[nH]c(=O)c21` [Example 121, 3-{2-[(4-fluorophenyl)amino]-5-[(methylsulfonyl)methyl]phenyl}-1-methyl-1,6-dihydro-7H-pyrrolo[2,3-c]pyridin-7-one] were, in that order, 12 nM, 79 nM and 40 nM.
Consider `Cn1cc(-c2cc(CS(C)(=O)=O)ccc2Nc2ccc(F)cc2F)c2cc[nH]c(=O)c21` [Example 122, 3-{2-[(2,4-difluorophenyl)amino]-5-[(methylsulfonyl)methyl]phenyl}-1-methyl-1,6-dihydro-7H-pyrrolo[2,3-c]pyridin-7-one], for which the Ki came out at 25 nM in experiment [1] and 55 nM in experiment [3]. The EC50 in experiment [2] came out at 44 nM.
Regarding `Cn1cc(-c2cc(S(=O)(=O)N3CC(F)(F)C3)ccc2OCC2CC2)c2cc[nH]c(=O)c21` [Example 125, 3-{2-(cyclopropylmethoxy)-5-[(3,3-difluoroazetidin-1-yl)sulfonyl]phenyl}-1-methyl-1,6-dihydro-7H-pyrrolo[2,3-c]pyridin-7-one], the Ki was 69 nM in experiment [1] and 92 nM in experiment [3]. In addition, the EC50 in experiment [2] was determined as 267 nM.
On to `CCS(=O)(=O)c1ccc(Oc2ccc(F)cc2F)c(-c2cn(C)c3c(=O)[nH]c(/C=C(\Cl)CCO)cc23)c1` [Example 126, 5-[(1Z)-2-chloro-4-hydroxybut-1-en-1-yl]-3-[2-(2,4-difluorophenoxy)-5-(ethylsulfonyl)phenyl]-1-methyl-1,6-dihydro-7H-pyrrolo[2,3-c]pyridin-7-one], for which the inhibitory constant (Ki) was 8.3 nM in experiment [1] and 5.7 nM in experiment [3]. The EC50 in experiment [2] was 81.9 nM.
Regarding `Cn1cc(-c2cc(CNCc3ccoc3)ccc2Oc2ccc(F)cc2F)c2cc[nH]c(=O)c21` [Example 127, 3-[2-(2,4-difluorophenoxy)-5-{[(furan-3-ylmethyl)amino]methyl}phenyl]-1-methyl-1,6-dihydro-7H-pyrrolo[2,3-c]pyridin-7-one], the Ki was determined as 619 nM in experiment [1] and 476 nM in experiment [3]. In addition, the EC50 in experiment [2] turned out to be 947 nM.
`Cn1cc(-c2cc(CNCCC3CCCC3)ccc2Oc2ccc(F)cc2F)c2cc[nH]c(=O)c21` [Example 128, 3-[5-{[(2-cyclopentylethyl)amino]methyl}-2-(2,4-difluorophenoxy)phenyl]-1-methyl-1,6-dihydro-7H-pyrrolo[2,3-c]pyridin-7-one]: the Ki in experiment [1] was 1490 nM; in experiment [3], 654 nM. Also, in experiment [2], the EC50 was over 3000 nM.
The like results for `COc1ccccc1S(=O)(=O)NCc1ccc(Oc2ccc(F)cc2F)c(-c2cn(C)c3c(=O)[nH]ccc23)c1` [Example 130, N-[4-(2,4-difluorophenoxy)-3-(1-methyl-7-oxo-6,7-dihydro-1H-pyrrolo[2,3-c]pyridin-3-yl)benzyl]-2-methoxybenzenesulfonamide] were, in that order, 247 nM, 1150 nM and over 3000 nM.
The like results for `Cn1cc(-c2cc(CNS(=O)(=O)Cc3ccc(Cl)cc3)ccc2Oc2ccc(F)cc2F)c2cc[nH]c(=O)c21` [Example 131, 1-(4-chlorophenyl)-N-[4-(2,4-difluorophenoxy)-3-(1-methyl-7-oxo-6,7-dihydro-1H-pyrrolo[2,3-c]pyridin-3-yl)benzyl]methanesulfonamide] were, in that order, 281 nM, 1250 nM and 1400 nM.
In the case of `Cc1ccc(CS(=O)(=O)NCc2ccc(Oc3ccc(F)cc3F)c(-c3cn(C)c4c(=O)[nH]ccc34)c2)cc1` [Example 132, N-[4-(2,4-difluorophenoxy)-3-(1-methyl-7-oxo-6,7-dihydro-1H-pyrrolo[2,3-c]pyridin-3-yl)benzyl]-1-(4-methylphenyl)methanesulfonamide], the Ki in experiment [1] turned out to be 249 nM; in experiment [3], 1240 nM. Besides, in experiment [2], the EC50 was 658 nM.
Consider `Cn1cc(-c2cc(CNS(=O)(=O)Cc3ccc(C(F)(F)F)cc3)ccc2Oc2ccc(F)cc2F)c2cc[nH]c(=O)c21` [Example 133, N-[4-(2,4-difluorophenoxy)-3-(1-methyl-7-oxo-6,7-dihydro-1H-pyrrolo[2,3-c]pyridin-3-yl)benzyl]-1-[4-(trifluoromethyl)phenyl]methanesulfonamide], for which the results for the Ki in experiment [1] and in experiment [3] were 49 nM and 2680 nM, respectively. Further, in experiment [2], the EC50 was determined as 1680 nM.
The like results for `Cn1cc(-c2cc(CNS(=O)(=O)Cc3ccc(C#N)cc3)ccc2Oc2ccc(F)cc2F)c2cc[nH]c(=O)c21` [Example 134, 1-(4-cyanophenyl)-N-[4-(2,4-difluorophenoxy)-3-(1-methyl-7-oxo-6,7-dihydro-1H-pyrrolo[2,3-c]pyridin-3-yl)benzyl]methanesulfonamide] were, in that order, 103 nM, 518 nM and 456 nM.
As for `Cn1cc(-c2cc(CNS(=O)(=O)CC(F)(F)F)ccc2Oc2ccc(F)cc2F)c2cc[nH]c(=O)c21` [Example 135, N-[4-(2,4-difluorophenoxy)-3-(1-methyl-7-oxo-6,7-dihydro-1H-pyrrolo[2,3-c]pyridin-3-yl)benzyl]-2,2,2-trifluoroethanesulfonamide], the Ki in experiment [1] stood at 27 nM; in experiment [3], 109 nM. Besides, in experiment [2], the EC50 was determined as 388 nM.
Take `Cn1cc(-c2cc(CNS(=O)(=O)C3CCCC3)ccc2Oc2ccc(F)cc2F)c2cc[nH]c(=O)c21` [Example 137, N-[4-(2,4-difluorophenoxy)-3-(1-methyl-7-oxo-6,7-dihydro-1H-pyrrolo[2,3-c]pyridin-3-yl)benzyl]cyclopentanesulfonamide]: the Ki in experiment [1] is 106 nM; in experiment [3], 374 nM. Besides, in experiment [2], the EC50 is 872 nM.
For the compound `Cc1oncc1S(=O)(=O)NCc1ccc(Oc2ccc(F)cc2F)c(-c2cn(C)c3c(=O)[nH]ccc23)c1` [Example 139, N-[4-(2,4-difluorophenoxy)-3-(1-methyl-7-oxo-6,7-dihydro-1H-pyrrolo[2,3-c]pyridin-3-yl)benzyl]-5-methyl-1,2-oxazole-4-sulfonamide], the Ki in experiment [1] turned out to be 129 nM; in experiment [3], 525 nM. Moreover, the EC50 in experiment [2] is over 3000 nM.
The like results for `Cc1noc(C)c1S(=O)(=O)NCc1ccc(Oc2ccc(F)cc2F)c(-c2cn(C)c3c(=O)[nH]ccc23)c1` [Example 140, N-[4-(2,4-difluorophenoxy)-3-(1-methyl-7-oxo-6,7-dihydro-1H-pyrrolo[2,3-c]pyridin-3-yl)benzyl]-3,5-dimethyl-1,2-oxazole-4-sulfonamide] were, in that order, 490 nM, 817 nM and 1820 nM.
`Cn1cc(-c2cc(CNS(=O)(=O)c3ccccc3)ccc2Oc2ccc(F)cc2F)c2cc[nH]c(=O)c21` [Example 141, N-[4-(2,4-difluorophenoxy)-3-(1-methyl-7-oxo-6,7-dihydro-1H-pyrrolo[2,3-c]pyridin-3-yl)benzyl]benzenesulfonamide]: the results for the Ki in experiment [1] and in experiment [3] were 64 nM and 495 nM, respectively. Also, the EC50 in experiment [2] was determined as 980 nM.
With `Cn1cc(-c2cc(S(=O)(=O)N3CCCC3)ccc2O[C@H]2CC[C@H](N(C)C)CC2)c2cc[nH]c(=O)c21` [Example 144, 3-[2-{[trans-4-(dimethylamino)cyclohexyl]oxy}-5-(pyrrolidin-1-ylsulfonyl)phenyl]-1-methyl-1,6-dihydro-7H-pyrrolo[2,3-c]pyridin-7-one], the Ki is 8.2 nM in experiment [1] and 107 nM in experiment [3]. In experiment [2], the EC50 came out at 73.1 nM.
